Measured values taken from patent US5608081A, “Hydroxymethylpolythiophene derivatives” (Industrial Technology Research Institute, priority 1995, dated 1997).

Assay: Anti-edema activity, conventional toe edema method using carrageenan as pyrogen and indomethacin as control inhibitory agent
Format: in vivo
Details: inhibition rate above 30% considered also antiinflammatory
Procedure: The anti-edema activity was tested according to the conventional toe edema method using carrageenan as pyrogen and indomethacin as control inhibitory agent. See C. A. Winter, E. A. Risley and G. W. Nuss, Biol. Med., 111, 544 (1962); and A. P. Roszkowshi, W. H. Rooks II, A. J. Tomolonis and L. M. Miller, J. Pharmacol. Exp. Ther., 179, 114 (1971), both of which are hereby incorporated by reference.
In general, polythiophene derivatives of this invention have shown significant anti-edema activity.

| Structure (SMILES) | Anti-edema effect, inhibition rate (dosage 10 mg/kg) [%] | Anti-edema effect, inhibition rate (dosage 50 mg/kg) [%] | Anti-edema effect, inhibition rate (dosage 100 mg/kg) [%] | Anti-edema effect, inhibition rate (dosage 200 mg/kg) [%] |
| --- | --- | --- | --- | --- |
| OCc1ccc(-c2ccc(CO)s2)s1 | 26 | 34 | 37 | 41 |
| CC(=O)OCc1ccc(-c2ccc(COC(C)=O)s2)s1 | – | 17 | 28 | 28 |
| OCCC#Cc1ccc(-c2cccs2)s1 | – | 32 | 36 | 38 |
